The text below walks through data of US8569578B1, “Generating transgenic potatoes with novel resistance to potato cyst nematodes by silencing nematode parasitism genes of CLE -1 and CLE-4s” (The United States of America, as represented by the …, priority 2009, dated 2013).

“Also recorded” adds a separate entry of the source.

Common to all, as to format: in vivo
Assay [1] relates to Arabidopsis (Columbia-0) roots. The assay can be described thus: in vitro root assay with synthetic CLE peptides on Arabidopsis roots. Particulars: 10 μM peptide in assay medium, compared with no peptide or Ag-16p. The text has this:
(§1) Mounting evidence supports that the conserved CLE motif represents the major functional domain of plant CLE proteins. Gr-CLE genes encode four different 12-aa CLE motifs (FIG. 1A). To examine the functional sufficiency of these nematode CLE motifs, we conducted in vitro root assays (Fiers et al. 2005) using synthetic dodecapeptides (GrCLE1-1-12p, GrCLE4-1-12p, GrCLE4-2-12p, and GrCLE4-3-12p) corresponding to the four CLE motifs of Gr-CLE proteins. A 16-aa peptide (Ag-16p) (Fiers et al. 2005) corresponding to the C-terminus of AGAMOUS that has no similarity with plant CLE motifs and a 12-aa CLV3 peptide (CLV3-12p) were used as negative and positive controls, respectively. In addition, several peptides, including a mutated GrCLE1-1 dodecapeptide (GrCLE1-1m-12p, with a Gly-to-Ala conversion as in clv3-1 and clv3-5 mutants), a 14-aa GrCLE1-1 peptide (GrCLE1-1-14p, with one additional N-terminal and one additional C-terminal residue compared to Gr-CLE1-1-12p), and three 13-aa peptides of GrCLE4-1-13p, GrCLE4-2-13p, and GrCLE4-3-13p (all contained an extra N-terminal lysine residue compared to the corresponding dodecapeptides), were synthesized and used in the in vitro root assays.
(§2) Peptides with a purity of >70% were synthesized (Sigma-Aldrich Corp., St. Louis, Mo., U.S.A) and dissolved in filter-sterilized 50 mM sodium phosphate buffer. Three Gr-CLE-1 related peptides were synthesized: GrCLE1-1-12p (12 aa, RVIPGGPDPLHN; SEQ ID NO: 12), GrCLE1-1m-12p (12 aa, RVIPGAPDPLHN; SEQ ID NO: 13, with a G-to-A conversion at position 6), and GrCLE1-1-14p (14 aa, KRVIPGGPDPLHNR; SEQ ID NO: 14). Six Gr-CLE-4 related peptides were synthesized: GrCLE4-1-12p (12 aa, RVAGAGPDPIHH; SEQ ID NO: 15), GrCLE4-1-13p (13 aa, KRVAGAGPDPIHH; SEQ ID NO: 16), GrCLE4-2-12p (12 aa, RAVPAGPDPKHH; SEQ ID NO: 17), GrCLE4-2-13p (13 aa, KRAVPAGPDPKHH; SEQ ID NO: 18), GrCLE4-3-12p (12 aa, RGAPAGPDP IHH; SEQ ID NO: 19), and GrCLE4-3-13p (13 aa, KRGAPAGPDPIHH; SEQ ID NO: 20). Positive and negative control peptides included CLV3-12p (12 aa, RTVPSGPDPLHH; SEQ ID NO: 21) and Ag-16p (16 aa, APNNHHYSSAGRQDQT; SEQ ID NO: 22) (Fiers et al., 2005).
(§3) For peptide treatments, seeds of wild-type Arabidopsis (Columbia-0) and potato, nonhost and host of G. rostochiensis, respectively, were surface-sterilized and plated on square plates (8-12 seeds per plate) containing the assay medium (Fiers et al. 2005, supra) with 10 μM of each peptide. Assay plates were placed vertically in a growth chamber and cultured at 23° C. for 16 h of light and 8 h of dark. The root length was measured from the base of the hypocotyl to the tip of the primary root at several time points after plating. Two independent experiments were conducted.

The test system of assay [2] is potato roots. The assay can be described thus: in vitro root assay with synthetic CLE peptides on potato roots. The settings on record: 10 μM peptide in assay medium, compared with no peptide or Ag-16p.
From the text: as §1, §2, §3

Assay [3] deals with Arabidopsis (Columbia-0) root apical meristem. The assay can be described thus: microscopic examination of root apical meristem of peptide treated Arabidopsis roots. Particulars: Arabidopsis primary roots 8 days after peptide treatment. The text has this: To examine root meristems, primary root tips were excised from peptide treated Arabidopsis seedlings or from transgenic potato hairy roots and immediately mounted in water onto a glass slide. Roots were examined under an Olympus BX-50 microscope equipped with Nomarski optics and images were captured using a QImaging Retiga EXi digital CCD camera (QImaging, Surrey, BC, Canada). The root apical meristem (RAM) regions of individual primary roots that covered the distance from the position around the quiescent center to the position where elongated root cells immediately follow cytoplasm-dense meristematic cells were measured microscopically. The collected data were analyzed using the MetaMorph imaging analysis software (Universal Imaging Corporation, Downingtown, Pa., U.S.A.)

Turning to “RTVPSGPDPLHH (listed as Globodera rostochiensis) [CLV3-12p, 12-aa CLV3 peptide, positive control, reference compound]”, the “suppression of root growth (length of main root)” value in assay [1] and in assay [2] was “severely suppressed root growth” each time. Also, the “root meristem consumption (size of root apical meristem)” value in assay [3] is reported as “showed a phenotype of root meristem consumption”.
“RVIPGGPDPLHN (listed as Globodera rostochiensis) [GrCLE1-1-12p, synthetic 12 aa dodecapeptide of the GrCLE1-1 CLE motif]”: the “suppression of root growth (length of main root)” value in assay [1] was “suppressed root growth; also recorded: comparable level of suppression as CLV3-12p; also recorded: significantly shorter”; in assay [1] (listed as GrCLE1-1) it was “higher degree of root suppression”; in assay [2] it was “suppressed root growth; also recorded: comparable level of suppression as CLV3-12p; also recorded: significantly shorter”. Besides, the “root meristem consumption (size of root apical meristem)” value in assay [3] is listed as “more severe; also recorded: significantly less”.
